The values below come from patent publication EP2068894B1, “USE OF CIS-RHENIUM (III) DI[…] FOR POTENTIATING THE A[…] OF PLATINIUM COMPLEXES” (SOCIETE DE CO[…] RECHERCHES THERAPEUTIQUES, priority 2006, dated 2007).

Assay type in all cases: in vivo, Wistar rats
The subject of test [1] is tumor carcinoma Guerink (T8) cells. The test can be described thus: Tumor growth in rats inoculated with tumor carcinoma Guerink (T8) cells. Conditions: for Weight of isolated tumors: day 21 after tumor cells inoculation, cisplatin 8 mg/kg i.p. single on day 9, Re2 7µM/kg i.p. in liposome forms every 2 days from day 3 to day 21; for tumor growth / measured tumor volumes: in comparison to control group, volumes assessed from day 7. The method, then: (§1) Wistar rats weighting 100-120 g were inoculated by tumor carcinoma Guerink (T8) cells (Experimental Oncology, 2003, Vol. 25, pp64-68). The cells were taken in the Institute of Oncology and Experimental Pathology by R.E.Kavetskiy (Kiev). The single intraperitoneal administration of Cisplatin at the dose of 8 mg/kg was made on the 9 day after the tumor inoculation according to the method disclosed by Taylor S.K. in Medical Hypothesis 2003; 60; n°1, pp 89-93. The intraperitoneal administration of the Re2 at the dose of 7µM/kg according to the schema of antioxidant therapy [Meerson F.Z. et al. Pat. Physiol. and Exp. Therap.(Rus) 1983;N5:25-9] in liposome forms [Sktemenko et al. Ukr.Biokhim.Journal (Ukr) 2002;74,N°6:38-43] began on the 3 day after the inoculation of the tumor cells and was repeated every 2 days until day 21. Body weights were measured from day 2 after tumor inoculation, the volume of tumors were assessed from the day 7. On the day 21 animals were sacrified under chlorophormium anesthesia and the tumors were isolated and weighted. Concentrations of hemoglobin (Hb) and quantity of red blood cells (RBC) were measured according to the method described by Chevary et al. in Laboratornoe delo (Rus) 1991;N°10:9-13
(§2) Four groups of 15 animals in each were compared: control group; group with introduction of cisplatin; group with introduction of Re2; and group with introduction of cisplatin together with Re2. Wilcoxon non parametric tests were used to compare the tumor volumes according to the absence of treatment and each group of treatment or between 2 treated groups. Growth of the tumors in control group was very rapid and reached […] and occupied approximately 1/3 of the animal weight. Dynamics of tumor growth is represented on the Figure 1.

Test [2] can be described thus: Hemoglobin concentration in blood of tumor-bearing rats. Conditions: for concentration of Hb: blood, day 21 after tumor cells inoculation, cisplatin 8 mg/kg i.p. day 9, Re2 7µM/kg i.p. every 2 days from day 3. The method, then: as §1, §2
For a further test, the system named is RBC. The test can be described thus: Morphological forms of red blood cells in blood of tumor-bearing rats. Conditions: day 21 after tumor cells inoculation; for Damaged RBC / Discocytes / Echinocytes: morphological forms of RBC in blood. The method, then:
as §1, §2

In the case of `N.N.[Cl][Pt][Cl]` [cisplatin], in test [1], the “Weight of isolated tumors” value is listed as 9.88 ± 9.90 g and the “tumor growth / measured tumor volumes” value is on record as “significant decrease in measured tumor volumes”. In addition, the “concentration of Hb” value in test [2] came out at 129.49 ± 12.43 g/L. Moreover, the “hemoglobin, result in words” value in test [2] (in comparison to control group, day 21) is recorded as “significant increase in hemoglobin”. Further, in the test with RBC, the “Damaged RBC” value is listed as 28.65 ± 3.98%, the Discocytes is recorded as 46.36 ± 3.18% and the Echinocytes amounted to 24.99 ± 3.84%.
With cis-[Re2(AdCOO)2Cl4].2CH3CN, in test [1], the “Weight of isolated tumors” value was 38.27 ± 16.77 g and the “tumor growth / measured tumor volumes” value is reported as “did not prevent tumor growth but caused a little delay in progression of growth”. The “concentration of Hb” value in test [2] was determined as 72.02 ± 11.12 g/L. Moreover, in the test on RBC, the “morphological picture of RBC, result in words” value was “supported quantities of discocytes and echinocytes on a rather high level”; the “Damaged RBC” value is on record as 21.53 ± 2.34%; the Discocytes was determined as 56.33 ± 4.32%; the Echinocytes is given as 22.14 ± 2.16%.
